We go through 28 compounds from patent US8409550B2, “Method for treating skin with retinoids and retinoid boosters” (Unilever Home & Personal Care, USA, Division of Conopco, …, priority 2000, dated 2013).

Read-outs that look alike come from different tables or passages of the source.

In data set [1] the test system is cytochrome P450 dependent retinoic acid oxidation. Briefly: Assay for NADPH dependent retinoic acid oxidation, rat liver microsomes (to identify B5). As to conditions: for % Inhibition Retinoic Acid (100 μM): compound 100 μM; for % Inhibition Retinoic Acid (10 μM): compound 10 μM. A general note: Microsomes from liver hold many membrane-bound enzymes, among them those of drug oxidation.

The next data set deals with Retinal Reductase. Briefly: Assay for retinal reductase activity, rat liver microsomes (to identify B3). As to conditions: test compound final 100 μM. The class given is biochemical.
The subject of data set [2] is transglutaminase (TGase I). Briefly: Transglutaminase (Tgase) ELISA assay in cultured keratinocytes with retinol and boosters. The class given is cell-based, human. As to conditions: for TG as % C, Compd 3: Compound 3 alone; for TG as % C, Compd 3 / TG as % C Compd 2 / TG as % C Compd 1: concentration one log below IC20; for IC20: IC20 (80% of control). On the technique in general: In an ELISA, binding on a coated surface is turned into a signal by an enzyme label.

The next data set has as its system ARAT. Briefly: Assay for ARAT activity, bovine RPE microsomes (to identify B1). The class given is biochemical. The settings on record: for % Inhibition ARAT (100 jm): compound 100 jm; for % Inhibition ARAT (10 jm): compound 10 jm.
For the next data set, the target named is T1, LRAT (Bos taurus, UniProt Q9BGL2).
T1 construct: followed by approximately 15 μg of RPE microsomal protein; tissue W. L. Lawson Co., Lincoln, Nebr., USA (eyecups); host or cells: bovine retinal pigment epithelium microsomes
T1 sequence (Q9BGL2 1-230): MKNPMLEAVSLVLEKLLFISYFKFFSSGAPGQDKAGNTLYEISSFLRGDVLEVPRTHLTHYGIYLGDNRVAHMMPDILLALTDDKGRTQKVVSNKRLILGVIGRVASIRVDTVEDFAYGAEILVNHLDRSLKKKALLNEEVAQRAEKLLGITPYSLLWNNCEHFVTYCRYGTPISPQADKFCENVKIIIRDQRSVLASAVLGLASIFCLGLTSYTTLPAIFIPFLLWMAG
Briefly: Assay for LRAT activity, bovine RPE microsomes (to identify B1). The format is biochemical. The settings on record: for % Inhibition LRAT (100 jm): compound 100 jm; for % Inhibition LRAT (10 jm): compound 10 jm.

[3] abbreviates: in the presence of 10^-7M retinol.
Where [4] appears, read: compound tested individually in the presence of 10^-7 M retinol.
Where [5] appears, read: Compound 2 alone, in the presence of 10^-7M retinol.
Where [6] appears, read: Tgase inhibition, compound tested individually in the presence of 10^-7 M retinol, read-out: IC50.

Regarding `CC(C)(C(=O)c1cccnc1)c1cccnc1` [2-Methyl-1,2-di-3-Pyridyl-1-Propane], the “% Inhibition Retinoic Acid (100 μM)” value in data set [1] turned out to be 47%.
On to `CCCCCCCCCCCCCCCCCCCC(=O)O` [Arachidic Acid], for which the “% Inhibition Retinal Reductase” value in the data set with Retinal Reductase is listed as 20%.
`CCCCC/C=C\C/C=C\C/C=C\C/C=C\CCCC(=O)O` [Arachidonic Acid]: the “% Inhibition Retinal Reductase” value in the data set on Retinal Reductase came out at 49%.
In the case of `c1ccc(-c2ccc(C(c3ccccc3)n3ccnc3)cc2)cc1` (centres unmarked) [Bifonazole], in data set [1], the “% Inhibition Retinoic Acid (10 μM)” value came out at 89% and the “% Inhibition Retinoic Acid (100 μM)” value is listed as 100%.
Take `CC1(C)[C@@H](OC(=O)CCC(=O)O)CC[C@]2(C)[C@H]3C(=O)C=C4[C@@H]5C[C@@](C)(C(=O)O)CC[C@]5(C)CC[C@@]4(C)[C@]3(C)CC[C@@H]12` [Carbenoxolone, reference compound]: the “% Inhibition Retinal Reductase” value with Retinal Reductase came out at 26% +/− 2. In addition, in data set [2] (setting [3]), the “TG as % C, Compd 3” value worked out at 88 % C. Besides, the IC20 in data set [2] (setting [4]) was determined as 0.2 µM. The “TG as % C Compd 2” value in data set [2] (compound 2 alone, with retinol) turned out to be 164 % C.
`CC(C)(C)C(=O)C(Oc1ccc(Cl)cc1)n1ccnc1` (centres unmarked) [Climbazole, reference compound]: the “TG as % C Compd 2” value in data set [2] (setting [5]) was found to be 84 % C. Moreover, the “TG as % C, Compd 3” value in data set [2] (setting [3]) came to 84 % C. Besides, in data set [2] (setting [4]), the IC20 came to 0.245 µM. Besides, in data set [1], the “% Inhibition Retinoic Acid (10 μM)” value was determined as 80% and the “% Inhibition Retinoic Acid (100 μM)” value turned out to be 92%.
Consider `Clc1ccccc1C(c1ccccc1)(c1ccccc1)n1ccnc1` [Clotrimazole, reference compound], for which the “TG as % C, Compd 3” value in data set [2] (setting [3]) is recorded as 79 % C. In data set [1], the “% Inhibition Retinoic Acid (10 μM)” value was found to be 76%.
With `CC(=O)CCC1C(C)=CCCC1(C)C` (stereo not drawn) [Dihydro Alpha-Ionone], the “% Inhibition ARAT (100 jm)” value with ARAT is recorded as 13%. Further, the “% Inhibition LRAT (100 jm)” value at LRAT is recorded as 18%.
Consider `CCCCCCCC(=O)OCC(COP(=O)(O)OCCN)OC(=O)CCCCCCC` (centres unmarked) [Dioctylphosphatidyl Ethanolamine], for which the “% Inhibition ARAT (10 jm)” value in the data set with ARAT is given as 23%. Also, on LRAT, the “% Inhibition LRAT (10 jm)” value was found to be 0% and the “% Inhibition LRAT (100 jm)” value was 17% +/− 17.
As to `Clc1ccc(COC(Cn2ccnc2)c2ccc(Cl)cc2Cl)cc1` (centres unmarked) [Econazole], in data set [1], the “% Inhibition Retinoic Acid (10 μM)” value turned out to be 88% and the “% Inhibition Retinoic Acid (100 μM)” value came to 100%.
For `CC1(C)[C@@H](O)CC[C@]2(C)[C@H]3C(=O)C=C4[C@@H]5C[C@@](C)(C(=O)O)CC[C@]5(C)CC[C@@]4(C)[C@]3(C)CC[C@@H]12` [Glycyrretinic Acid, Glycyrrhetinic Acid], the “% Inhibition Retinal Reductase” value in the data set with Retinal Reductase turned out to be 38% +/− 1. In addition, the “TG as % C Compd 2” value in data set [2] (setting [5]) is recorded as 91 % C; in data set [2] (compound 2 alone, with retinol), 92 % C. In addition, the “TG as % C, Compd 3” value in data set [2] (setting [3]) was found to be 91 % C. In data set [2] (setting [4]), the IC20 was 5.96 µM. In addition, in data set [2] (setting [6]), the IC50 stood at 8.64 µM.
On to `CC=CC(=O)C1CCC(C)(C)C=C1C` (centres unmarked) [Isodamascone], for which the “% Inhibition ARAT (100 jm)” value with ARAT is on record as 80%. In addition, the “% Inhibition LRAT (100 jm)” value at LRAT was determined as 92%.
As for `CC(=O)N1CCN(c2ccc(OCC3COC(Cn4ccnc4)(c4ccc(Cl)cc4Cl)O3)cc2)CC1` (centres unmarked) [Ketoconazole, reference compound], the “TG as % C Compd 2” value in data set [2] (setting [5]) came to 85 % C. The IC20 in data set [2] (setting [4]) was determined as 0.0552 µM. Moreover, in data set [1], the “% Inhibition Retinoic Acid (10 μM)” value is on record as 84% and the “% Inhibition Retinoic Acid (100 μM)” value is 84%.
Consider `CCCCC/C=C\C/C=C\CCCCCCCC(=O)O` [Linoleic Acid], for which, in the data set on Retinal Reductase, the “% Inhibition Retinal Reductase” value was found to be 62% +/− 2. Further, the “TG as % C, Compd 3” value in data set [2] (setting [3]) is given as 11 % C. For the same compound, in data set [2] (setting [4]), the IC20 was 89.5 µM.
As for `Clc1ccc(COC(Cn2ccnc2)c2ccc(Cl)cc2Cl)c(Cl)c1` (centres unmarked) [Miconazole, reference compound], the “TG as % C Compd 2” value in data set [2] (setting [5]) turned out to be 92 % C. The “TG as % C, Compd 3” value in data set [2] (setting [3]) is 82 % C. For the same compound, the IC20 in data set [2] (setting [4]) was 0.0842 µM. Also, in data set [1], the “% Inhibition Retinoic Acid (10 μM)” value is given as 74% and the “% Inhibition Retinoic Acid (100 μM)” value is on record as 86%.
Consider `CCCCCCCCCCCCCC(=O)O` [Myristic Acid], for which the “% Inhibition Retinal Reductase” value with Retinal Reductase is given as 26%. Moreover, the “TG as % C Compd 1” value in data set [2] (Compound 1 alone, in the presence of 10^-7M retinol) was 79 % C; in data set [2] (compound 1 alone, with retinol), 110 % C. In addition, in data set [2] (setting [4]), the IC20 was 10.5 µM.
In the case of `CCCCCCCC/C=C\CCCCCCCC1=NCCN1CCO` [Oleyl Hydroxyethylimidazoline], the IC50 in data set [2] (B5 table, with 10^−7 M retinol, read-out: Overall TG (IC 50)) was 30.2 µM; in data set [2] (setting [6]), 30.2 µM. Also, the “TG as % C, Compd 3” value in data set [2] (setting [3]) is 76 % C. The IC20 in data set [2] (setting [4]) was determined as 5.65 µM. Further, the “TG as % C Compd 2” value stood at 92 % C in data set [2] (compound 2 alone, with retinol, listed as Oleoyl hydorxyethylimdazoline) and 73 % C in data set [2] (compound 2 alone, with retinol, listed as Oleoyl hydroxyethylimiazoline). The “% Inhibition Retinoic Acid (10 μM)” value in data set [1] worked out at 54%. Further, the “% Inhibition Retinoic Acid (100 μM)” value in data set [1] is 80%.
For `O=c1c(O)c(-c2ccc(O)c(O)c2)oc2cc(O)cc(O)c12` [Quercetin], the “TG as % C, Compd 3” value in data set [2] (setting [3]) is reported as 92 % C. The IC20 in data set [2] (setting [4]) turned out to be 51.1 µM. For the same compound, in data set [1], the “% Inhibition Retinoic Acid (10 μM)” value stood at 40% and the “% Inhibition Retinoic Acid (100 μM)” value came out at 74%.
Regarding `COc1cc(C=O)ccc1O` [Vanillin], in the data set with Retinal Reductase, the “% Inhibition Retinal Reductase” value came to 6%. The “TG as % C, Compd 3” value in data set [2] (setting [3]) is 134 % C. Also, in data set [2] (setting [4]), the IC20 was 8470 µM.
Take Acetyl Sphingosine: in the data set with ARAT, the “% Inhibition ARAT (10 jm)” value amounted to 19% +/− 12 and the “% Inhibition ARAT (100 jm)” value was 62% +/− 11. Moreover, on LRAT, the “% Inhibition LRAT (10 jm)” value came out at 10% +/− 10 and the “% Inhibition LRAT (100 jm)” value came out at 50% +/− 18. For the same compound, the IC50 in data set [2] (B1 table, booster concentration which with 10^−7 M retinol inhibits TGase by 50%, same values in the 19th table (Molar), read-out: Overall TG (IC 50)) came to 6.78 µM. For the same compound, the “TG as % C, Compd 3” value in data set [2] (setting [3]) was determined as 99 % C. Moreover, the IC20 in data set [2] (setting [4]) was determined as 5.15 µM. Moreover, the IC50 in data set [2] (setting [6]) stood at 6.78 µM.
With Alpha-Methyl Ionone, the “% Inhibition ARAT (100 jm)” value in the data set with ARAT came to 67%. Moreover, on LRAT, the “% Inhibition LRAT (100 jm)” value was found to be 77%.
Consider Brahmanol, for which the “% Inhibition ARAT (100 jm)” value in the data set with ARAT is reported as 70%. For the same compound, at LRAT, the “% Inhibition LRAT (100 jm)” value stood at 75%.
For Cocoyl Monoethanolamide, in that order: 13% and 34%.
In the case of Glycerol-PCA-Oleate, the “% Inhibition ARAT (100 jm)” value in the data set with ARAT was 41% +/− 6. Besides, the “% Inhibition LRAT (100 jm)” value at LRAT is 58% +/− 2.
For Isobutyl Ionone, the “% Inhibition ARAT (100 jm)” value with ARAT worked out at 8%. In addition, the “% Inhibition LRAT (100 jm)” value at LRAT is reported as 45%.
The corresponding values for Isocyclogeraniol are 18% and 16%.
The corresponding values for Santalone are 23% and 12%.
The corresponding values for Santanol are 15% and 43%.

As a reminder, the IC20 is the point of the concentration-response curve where the effect stands at 20%.
